The record followed here is ChEMBL document CHEMBL1201862, “PubChem BioAssay data set” (2004).

Test systems include HCC 2998; HL-60; HOP-62; HT-29; K562; LOX IMVI; MOLT-4; NCI-H226; NCI-H460; OVCAR-5; OVCAR-8; RPMI-8226; RXF 393; SK-MEL-28; SK-MEL-5; SNB-75; SR; T47D; UACC-257; UACC-62.
What all share (test): growth of human tumour cells (NCI), 48 h

Molecules are shown by their SMILES.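 Values below derive from 48-hour exposures of cells grown in 96-well plates, with endpoints linearly interpolated between the two concentrations bracketing the appropriate inhibition level. The concentration for 50% growth inhibition is given as GI50.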 Active and inactive are the calls of the source. No stated cut-off is given here; in the data, active = GI50 up to about 1.1 µM and inactive = higher.

For `COc1cccc(C2CC(C)(O)Oc3cc4c(cc32)OCO4)c1O` (stereo not given), the GI50 was 25.6 µM (inactive) in the assay on HCC 2998; 31 µM (inactive) in the assay on HL-60; 27.4 µM (inactive) in the assay with HOP-62; 21.4 µM (inactive) in the assay on HT-29; 9.68 µM (inactive) with K562; 25.3 µM (inactive) in the assay with LOX IMVI. In addition, the GI50 with MOLT-4 is 37.4 µM (inactive); in the assay on NCI-H226 it was 17.4 µM (inactive); in the assay with NCI-H460, 32.6 µM (inactive); with OVCAR-5, 27 µM (inactive); in the assay with OVCAR-8, 25.7 µM (inactive); in the assay with RPMI-8226, 32.5 µM (inactive). The GI50 in the assay on RXF 393 is 26.3 µM (inactive); with SK-MEL-28 it was 35.2 µM (inactive); in the assay on SK-MEL-5 it was 9.31 µM (inactive); with SNB-75, 14.2 µM (inactive); in the assay on SR it was 4.63 µM (inactive); in the assay with T47D, 64.4 µM (inactive). The GI50 with UACC-257 was 39.4 µM (inactive); in the assay on UACC-62 it was 15.7 µM (inactive).

With `Oc1ccc(/C=C\c2nnc(/C=C\c3ccc(O)c(O)c3)s2)cc1O`, the GI50 with HCC 2998 was 8.32 µM (inactive); in the assay with HL-60, 0.853 µM (active); with HOP-62, 8.85 µM (inactive); in the assay on HT-29, 36.1 µM (inactive); in the assay with K562, 1.21 µM (inactive); with LOX IMVI, 5.46 µM (inactive). For the same compound, the GI50 was 1.08 µM (active) in the assay on MOLT-4; 7.73 µM (inactive) in the assay with NCI-H226; 4.07 µM (inactive) in the assay with NCI-H460; > 48.6 µM (inactive) in the assay with OVCAR-5; 4.56 µM (inactive) in the assay on OVCAR-8; 1.32 µM (inactive) in the assay with RPMI-8226. For the same compound, the GI50 was 5.16 µM (inactive) in the assay on RXF 393; 7.45 µM (inactive) in the assay on SK-MEL-28; 3.2 µM (inactive) in the assay on SK-MEL-5; 5.26 µM (inactive) with SNB-75; 1.91 µM (inactive) with SR; 2.35 µM (inactive) in the assay with T47D. Also, the GI50 in the assay with UACC-257 is 8.34 µM (inactive); in the assay on UACC-62 it was 3.82 µM (inactive).

For the compound `C=C1C(C2(C)C(OC(C)=O)CC(=O)OC(C)(COC(C)=O)C2CC(=O)OC)C(OC=O)C(OC(=O)C(O)C(C)CC)C2(C)C(c3ccoc3)CC(=O)C12O` (stereo not given), the GI50 was 0.16 µM (active) in the assay on HCC 2998; 0.157 µM (active) in the assay on HL-60; 7.43 µM (inactive) in the assay with HOP-62; 3.42 µM (inactive) in the assay with HT-29; 4.49 µM (inactive) in the assay with K562; 3.82 µM (inactive) in the assay on LOX IMVI. For the same compound, the GI50 is > 100 µM (inactive) in the assay on MOLT-4; 16.7 µM (inactive) in the assay with NCI-H226; 2.65 µM (inactive) in the assay with NCI-H460; > 100 µM (inactive) in the assay with OVCAR-5; 10.2 µM (inactive) with OVCAR-8; > 100 µM (inactive) in the assay on RPMI-8226. Also, the GI50 in the assay with RXF 393 was 2.7 µM (inactive); with SK-MEL-28, 10.8 µM (inactive); with SK-MEL-5, 2.94 µM (inactive); with SNB-75 it was 3.57 µM (inactive); with SR it was 5.36 µM (inactive); in the assay on T47D, > 57.7 µM (inactive). For the same compound, the GI50 is > 100 µM (inactive) with UACC-257 and > 30.7 µM (inactive) with UACC-62.

`CC(C)/C(Cl)=N\OC(=O)Nc1ccccc1F`: the GI50 in the assay on HCC 2998 is 14.9 µM (inactive); in the assay on HL-60 it was 1.68 µM (inactive); with HOP-62 it was > 41.1 µM (inactive); in the assay on HT-29, 24.3 µM (inactive); in the assay on K562 it was 1.95 µM (inactive); in the assay on LOX IMVI, 2.55 µM (inactive). In addition, the GI50 in the assay on MOLT-4 is 2.82 µM (inactive); in the assay on NCI-H226, 15.1 µM (inactive); in the assay on NCI-H460, 18.7 µM (inactive); in the assay on OVCAR-5, 18.5 µM (inactive); with OVCAR-8, 17.2 µM (inactive); in the assay on RPMI-8226, 6.04 µM (inactive). The GI50 is 3.15 µM (inactive) in the assay with RXF 393; 16.6 µM (inactive) with SK-MEL-28; 14.5 µM (inactive) in the assay on SK-MEL-5; 10.2 µM (inactive) with SNB-75; 2.25 µM (inactive) in the assay with SR; 20.9 µM (inactive) with T47D. The GI50 with UACC-257 is 18.3 µM (inactive); with UACC-62, 17.3 µM (inactive).
